Data as given in article PMC8625051, “Wound Healing Metabolites from Peters’ Elephant-Nose Fish Oil: An In Vivo Investigation Supported by In Vitro and In Silico Studies” (Marine Drugs, 2021).

Key:
Type in all cases: biochemical
COX-2 = target: T1, COX-2 (Homo sapiens, UniProt P35354); experiment: In vitro COX-2 inhibitory assay (fluorometric screening kit, Biovision)
T1 construct: purchased Biovision
T1 sequence (P35354 18-604): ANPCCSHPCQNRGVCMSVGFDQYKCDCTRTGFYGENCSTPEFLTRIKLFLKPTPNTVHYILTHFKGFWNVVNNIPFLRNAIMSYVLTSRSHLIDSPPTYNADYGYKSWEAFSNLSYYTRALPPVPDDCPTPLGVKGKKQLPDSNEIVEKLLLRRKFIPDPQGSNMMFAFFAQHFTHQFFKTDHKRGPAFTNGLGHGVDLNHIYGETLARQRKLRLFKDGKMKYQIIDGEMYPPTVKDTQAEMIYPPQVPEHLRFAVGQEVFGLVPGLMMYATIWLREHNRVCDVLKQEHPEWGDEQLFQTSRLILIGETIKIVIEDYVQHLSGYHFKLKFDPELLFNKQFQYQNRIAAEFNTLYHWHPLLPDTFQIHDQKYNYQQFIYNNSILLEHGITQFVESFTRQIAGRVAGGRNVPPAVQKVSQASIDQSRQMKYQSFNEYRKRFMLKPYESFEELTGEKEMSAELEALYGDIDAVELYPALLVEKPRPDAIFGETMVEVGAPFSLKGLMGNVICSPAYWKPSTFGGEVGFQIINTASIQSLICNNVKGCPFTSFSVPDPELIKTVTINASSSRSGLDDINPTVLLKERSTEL
Procedure: (§1) The in vitro inhibitory assays of the isolated compounds against COX-1 and COX-2 were determined by using fluorometric-based screening kits (Biovision, Switzerland) according to the manufacturer’s protocol. These assays are based on the detection of the florescence produced by prostaglandin G2, i.e., the intermediate product produced by the COX-1 and -2 enzymes. The enzymes solutions were prepared by adding […] of dd. H2O to the lyophilized enzymes in the kit. The diluted COX cofactor was formulated by mixing the COX assay buffer (398 mL) and COX Cofactor (2 mL). 5 mL of arachidonic acid were added to 5 mL of NaOH and then diluted by 90 mL of double distilled H2O to produce dilute arachidonic acid/NaOH solution. Subsequently, all these prepared solutions were mixed to produce the reaction mixture ([…]). Different concentrations of the test compounds were added to the previous solution. The reaction mixtures were then incubated at 25 °C for 10 min. […] These assays of test compounds, blank, and reference inhibitors were carried out in triplicates. IC50 values were calculated by GraphPad software (version 7.0), where the percentage inhibitions were plotted versus the log concentrations. Dividing the IC50 calculated for […] by the IC50 calculated for […] was applied to determine the Selectivity index (SI).

COX-1 = target: T2, COX-1 (Ovis aries, UniProt P05979); experiment: In vitro COX-1 inhibitory assay (fluorometric screening kit, Biovision)
T2 construct: purchased Biovision
T2 sequence (P05979 25-600): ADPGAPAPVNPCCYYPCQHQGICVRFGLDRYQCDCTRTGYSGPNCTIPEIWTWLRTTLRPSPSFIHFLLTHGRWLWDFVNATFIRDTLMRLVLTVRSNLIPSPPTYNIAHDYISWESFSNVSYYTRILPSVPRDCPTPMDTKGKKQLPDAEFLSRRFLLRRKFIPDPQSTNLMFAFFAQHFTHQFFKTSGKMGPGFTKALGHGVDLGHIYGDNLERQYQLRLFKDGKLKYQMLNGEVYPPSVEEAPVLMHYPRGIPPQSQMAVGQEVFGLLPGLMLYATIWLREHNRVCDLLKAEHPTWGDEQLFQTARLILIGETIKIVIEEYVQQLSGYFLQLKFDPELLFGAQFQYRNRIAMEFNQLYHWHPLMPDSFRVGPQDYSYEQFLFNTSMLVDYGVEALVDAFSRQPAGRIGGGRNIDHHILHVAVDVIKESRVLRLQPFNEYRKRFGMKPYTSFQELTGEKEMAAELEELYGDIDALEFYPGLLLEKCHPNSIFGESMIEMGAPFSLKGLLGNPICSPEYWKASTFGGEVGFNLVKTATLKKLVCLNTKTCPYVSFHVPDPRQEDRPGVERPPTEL
Procedure: as §1

[1] = Hydrogen peroxide scavenging activity
Procedure: The residual H2O2 was determined colorimetrically. Briefly, 20 µL of the sample was added to 500 µL of H2O2 and incubated for 10 min., at 37 °C. […] The optical density of the colored product was measured at 510 nm using ascorbic acid as a positive control. The percentage of H2O2 scavenging activity was calculated by using the following formula (Equation (1)). (1) Scavenging activity=A control – A sample/A control×100 IC50 of each sample was determined at four different concentrations using Graph pad prism 7 software.

[2] = Superoxide radical scavenging activity
Procedure: The superoxide anion scavenging activity was measured as previously performed by […] et al., 2007 [57]. […] The reaction was initiated by adding 0.1 mL PMS solution (0.12 mM) to the mixture, incubated at 25 °C for 5 min., and the optical density was measured at 560 nm, compared to the reference ascorbic acid. The percentage inhibition was calculated using the following formula, Equation (2). (2) Superoxide scavenging activity=A control - A sample/A control×100 IC50 was calculated using Graph pad prism 7 software by performing the test at four different concentrations.

Row | Structure (SMILES) | IC50 (COX-2) [µM] | IC50 (COX-1) [µM] | COX-2/COX-1 (COX-2; selectivity index, ratio of IC50 values) | H2O2 scavenging IC50 [1] [µg/mL] | superoxide radical scavenging IC50 [2] [µg/mL]
1 | CCCCCCC=CCC=CCC=CCC=CCCCCC(=O)O [Compound 4, 6,9,12,15-docosatetraenoic acid] | 2.41 ± 0.2 | 18.5 ± 0.4 | 0.13 |  | 
2 | CC(C)CCC[C@@H](C)[C@H]1CC[C@H]2[C@@H]3CC=C4C[C@@H](O)CC[C@]4(C)[C@H]3CC[C@]12C [Compound 5, cholesterol] | > 100 | > 100 |  |  | 
3 | CCCCCCCCCCc1ccccc1O [Compound 6, 2-decylphenol] | > 100 | > 100 |  |  | 
4 | O=C1O[C@H]([C@@H](O)CO)C(O)=C1O [ascorbic acid] |  |  |  | 174.2 | 164

Continued, values first:

Row | IC50 (COX-2) [µM] | IC50 (COX-1) [µM] | COX-2/COX-1 (COX-2; selectivity index, ratio of IC50 values) | H2O2 scavenging IC50 [1] [µg/mL] | superoxide radical scavenging IC50 [2] [µg/mL] | Structure (SMILES)
5 | > 100 | > 100 |  |  |  | CCCCCC/C=C\CCCCCCCC(=O)O [Compound 1, palmitoleic acid]
6 | > 100 | > 100 |  |  |  | CCCCCCCCCCCCCCCC(=O)O [Compound 2, palmitic acid]
7 | > 100 | > 100 |  |  |  | CCCCCCCC/C=C\CCCCCCCC(=O)O [Compound 3, oleic acid]
